{"source": "patent US20200016078A1", "about": "“COMPOSITION FOR TRANSDERMAL DELIVERY OF MICRONUTRIENTS AND METHOD OF PREPARATION THEREOF” (CERELIA NUTRITECH PVT LTD, priority 2017, published 2020)", "settings": "rat, in vivo, po, 10 mg", "experimental": "The compound was dissolved in 5 ml of distilled water and then made up to 10 ml with distilled water to make a solution of 5 mg/ml concentration. For group 1 (G1), a dose volume of 2 ml formulation containing 10 mg of reference standard was administered to each rat irrespective of the body weight. Test formulation is as provided in example 5B. Test formulation was used as such as the formulation is in gel form for dermal application. 3 gm of the gel formulation containing 10 mg of test cynacobalamine is a test formulation.\nOne day prior to the dermal application of test item formulation for group 2 (G2) rats, the hair from the back of each rat was removed using hair removal cream and washed with saline. On the day of experiment, the shaved area was wiped with 70% isopropyl alcohol and dried. […] Immediately after application, the area was covered with non-absorbable cotton and was secured with adhesive tape.\nBlood was collected through retro orbital plexus using capillary at specified time points i.e. 0.5 hr, 1.0 hr, 3.0 hr, 6.0 hr & 24.0 hrs post-dose. To collect the serum sample, the tubes were kept for 30 min. at room temperature and allowed for coagulation and then separated by centrifugation the tubes at 3000 rpm for 10 min at 4° C."}
{"substance": "Cynacobalamine [Oral]", "values": [{"measurement": "AUC (0-∞)", "value": 2775.15, "unit": "ng·h/mL"}, {"measurement": "Cmax", "value": 205.67, "unit": "ng/mL"}, {"measurement": "Tmax", "value": 1, "unit": "h"}]}
